# Patent publication US20210330611A1, “THERAPY FOR NEUROLOGICAL DISEASES/DISORDERS” (priority 2020, published 2021)
# Counter-ions that a name gives are not always drawn. Like-named read-outs stand apart in the source and are kept apart here.
# Experiments:
# [1] = test system: fibrin-induced microglia activation; experiment: Image-based assay of fibrin-induced microglia activation (HTS and dose response); assay type: cell-based, rat; settings: primary microglia HTS, fibrin stimulation, compounds at 10 μM; for inhibition at 10 µM: Rattus norvegicus, Microglia, read-out: Fibrin % inhibition
# [2] = test system: LPS-induced microglia activation; experiment: Image-based assay of LPS-induced microglia activation (HTS and dose response); assay type: cell-based, rat; settings: primary microglia HTS, LPS stimulation, compounds at 10 μM; for inhibition at 10 µM: Rattus norvegicus, Microglia, read-out: LPS % inhibition
# [3] = test system: fibrin- and LPS-induced microglia activation; experiment: cells; assay type: cell-based, rat; settings: HTS at 10 μM
# primary rat microglia [4] = test system: primary rat microglia
# primary rat microglia [5] = experiment: Cell toxicity (dead cells, size <150 μm2) in coated fibrin (cFib) assay; settings: primary microglia HTS, fibrin assay, dead cells (size <150 μm2);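 note: share of dead cells sized under 150 µm2 at 10 µM in fibrin-stimulated microglia HTS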
# [6] = quadrant by fibrin and LPS inhibition
# [7] = classification by fibrin and LPS inhibition
Structure (SMILES),inhibition at 10 µM [1],inhibition at 10 µM [2],"Quadrant (FIG. 5b) [3, 6]",LPS % cell toxicity (primary rat microglia [4]; rat),Fibrin % cell toxicity (primary rat microglia [5]),Fibrin % inhibition [1],LPS % inhibition [2],LPS % cell toxicity (primary rat microglia [4]),"Quadrant (FIG. 5b) [3, 7]",Fibrin % cell toxicity (primary rat microglia [5]; compounds at 10 μM)
CCOC(=O)OC(C)OC(=O)[C@@H]1N2C(=O)[C@@H](NC(=O)[C@H](N)c3ccccc3)[C@H]2SC1(C)C (stereo partly shown) [Bacampicillin Hydrochloride],-12%,8%,Q4,0%,1%,–,–,–,–,–
O=C(O)CCNC(=O)c1ccc(/N=N/c2ccc(O)c(C(=O)O)c2)cc1 [Balsalazide],-2%,11%,Q4,0%,0%,–,–,–,–,–
CCC1(CC)C(=O)NC(=O)NC1=O [Barbital],-5%,11%,Q4,0%,0%,–,–,–,–,–
"NC[C@H]1O[C@H](O[C@H]2[C@H](O)[C@@H](O[C@H]3O[C@H](CO)[C@@H](O)[C@H](N)[C@H]3O)[C@H](N)C[C@@H]2N)[C@H](N)[C@@H](O)[C@@H]1O.O=S(=O)(O)O [Becanamycin Sulfate, Bekanamycin Sulfate]",–,–,Q4,–,1%,−10%,16%,0%,–,–
CCC(=O)OCC(=O)[C@@]1(OC(=O)CC)[C@@H](C)C[C@H]2[C@@H]3CCC4=CC(=O)C=C[C@]4(C)[C@@]3(Cl)[C@@H](O)C[C@@]21C [Beclomethasone Dipropionate],7%,28%,Q4,1%,1%,–,–,–,–,–
C[C@H]1C[C@H]2[C@@H]3CCC4=CC(=O)C=C[C@]4(C)[C@@]3(Cl)[C@@H](O)C[C@]2(C)[C@@]1(O)C(=O)CO [Beclomethasone],–,–,Q4,–,1%,−8%,−3%,0%,–,–
CCCCC(CC)COc1ccc(-c2nc(-c3ccc(OC)cc3)nc(-c3ccc(OCC(CC)CCCC)cc3O)n2)c(O)c1 (stereo not shown) [Bemotrizinol],–,–,Q4,–,1%,−23%,16%,0%,–,–
CCOC(=O)[C@H](CCc1ccccc1)N[C@H]1CCc2ccccc2N(CC(=O)O)C1=O [Benazepril],0%,26%,Q4,1%,1%,–,–,–,–,–
"NS(=O)(=O)c1cc2c(cc1C(F)(F)F)NC(Cc1ccccc1)NS2(=O)=O (stereo not shown) [Bendrofumethiazide, Bendroflumethiazide]",–,–,Q4,–,1%,−15%,12%,1%,–,–
CC(Cc1cccc(C(F)(F)F)c1)NCCOC(=O)c1ccccc1 (stereo not shown) [Benfluorex],-26%,-3%,Q4,0%,1%,–,–,–,–,–
C/C(=C(\CCOP(=O)(O)O)SC(=O)c1ccccc1)N(C=O)Cc1cnc(C)nc1N [Benfotiamine],-47%,18%,Q4,0%,0%,–,–,–,–,–
O=C(CNC(=O)c1ccc(Cl)cc1)NO [Benurestat],–,–,Q4,–,1%,6%,22%,1%,–,–
CCc1oc2ccccc2c1C(=O)c1cc(Br)c(O)c(Br)c1 [Benzbromarone],0%,24%,Q4,1%,0%,–,–,–,–,–
CCCCNc1ccc(C(=O)OCCOCCOCCOCCOCCOCCOCCOCCOCCOC)cc1 [Benzonatate],0%,12%,Q4,0%,1%,–,–,–,–,–
O=C(Oc1cccc2cccnc12)c1ccccc1 [Benzoxiquine],-2%,14%,Q4,0%,1%,–,–,–,–,–
NS(=O)(=O)c1cc2c(cc1Cl)N=C(CSCc1ccccc1)NS2(=O)=O [Benzthiazide],-8%,7%,Q4,0%,1%,–,–,–,–,–
CN1CC(=O)NC1=N [Creatinine],-3%,10%,–,0%,–,–,–,–,Q4,1%
"CC(=O)Oc1c(C)cccc1C(=O)O [Cresopyrine, Cresopirine]",–,–,–,–,–,13%,15%,1%,Q4,1%
O=C(O)c1cc(=O)c2c(OCC(O)COc3cccc4oc(C(=O)O)cc(=O)c34)cccc2o1 [Cromoglicic acid],-28%,8%,–,0%,–,–,–,–,Q4,0%
FC(F)(Cl)C(F)(F)Cl [Cryoflurane],–,–,–,–,–,−4%,12%,0%,Q4,1%
CC1CC(OC(=O)C(O)c2ccccc2)CC(C)(C)C1 (stereo not shown) [Cyclandelate],-57%,4%,–,0%,–,–,–,–,Q4,0%
CN1CCN(C(c2ccccc2)c2ccccc2)CC1 [Cyclizine],-23%,34%,–,1%,–,–,–,–,Q4,0%
CN(C)CCOC(=O)C(c1ccccc1)C1(O)CCCC1 (stereo not shown) [Cyclopentolate],-8%,9%,–,0%,–,–,–,–,Q4,1%
N[C@@H]1CON=C1O [Cycloserine],-4%,19%,–,0%,–,–,–,–,Q4,0%
Nc1nc(N)nc(NC2CC2)n1 [Cyromazine],-9%,9%,–,0%,–,–,–,–,Q4,1%
N[C@H](Cc1ccccc1)C(=O)O [D-phenylalanine],1%,23%,–,0%,–,–,–,–,Q4,1%
CCCCCCOC(=O)NC(=N)c1ccc(NCc2nc3cc(C(=O)N(CCC(=O)OCC)c4ccccn4)ccc3n2C)cc1 [Dabigatran etexilate],3%,9%,–,0%,–,–,–,–,Q4,0%
Nc1ccncc1 [Dalfampridine],8%,2%,–,0%,–,–,–,–,Q4,2%
"O=C1c2cccc(O)c2C(=O)c2c(O)cccc21 [Dantron, Danthron]",–,–,–,–,–,−9%,13%,0%,Q4,0%
